We go through 29 molecules from PubChem BioAssay (NCI).

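Grown in 96-well plates, cells were treated for 48 hours with each compound at five concentrations. Insufficient inhibition: endpoint recorded as highest concentration tested. GI50 is the concentration that inhibits growth by half. TGI is the concentration that stops growth completely.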

In one experiment the test system is K-562 leukemia. As to the kind of experiment: NCI-60 cell line screen, 48 h.
In turn, `CCOC(=O)C(=C=C=C(c1ccccc1)c1ccccc1)C(=O)OCC` showed a TGI of 28.5 µM.

The molecule `Cn1c2ccccc2c2cc(-c3ccccc3)c3c(c21)C(=O)c1ccccc1C3=O` displayed a TGI of 73.1 µM.

`c1ccc(COc2cccc3ccc[n+](Cc4ccccc4)c23)cc1` came in with a TGI greater than 100 µM.

The molecule `CN(C)c1ccc(/C=C(\NC(=O)c2ccccc2)c2nc3ncncc3[nH]2)cc1` returned a TGI greater than 100 µM.

Consider `CC1=CC(O)(c2ccc(-c3ccccc3Cl)cc2)OC1=O` (stereo not given), for which the TGI is greater than 100 µM.

Take `CCOC(=O)CC(=O)ON(C)C(C)=O`: the TGI is greater than 100 µM.

As for `CCc1cc(Cc2cc(CC)c(NC(=O)C(=O)Cc3ccccn3)c(CC)c2Cl)c(Cl)c(CC)c1NC(=O)C(=O)Cc1ccccn1`, the TGI is greater than 100 µM.

The molecule `CC(C)OP(=O)(OC(C)C)C(=NCCN=C(NNc1ccc([N+](=O)[O-])cc1)P(=O)(OC(C)C)OC(C)C)NNc1ccc([N+](=O)[O-])cc1` had a TGI greater than 100 µM.

On to `COC(OC)C(C)CC(=O)N(C)C` (stereo not given), for which the TGI was greater than 100 µM.

In the case of `O=S1(=O)OCCOS(=O)(=O)C1Br`, the TGI was greater than 100 µM.

Regarding `CC(C)=Cc1cc(C(=O)Nc2ccc(Cl)c(Cl)c2)nc(N)n1`, the TGI is greater than 100 µM.

The molecule `C#CC1(O)CCC2C3CCc4cc(Oc5nc(F)nc(-c6c7ccccc7c7sc8ccccc8n67)n5)ccc4C3CC[C@@]21C` (stereo not given in full) displayed a TGI greater than 100 µM.

Take `CC(=O)/C(=C\c1cccc([N+](=O)[O-])c1)C(=O)Nc1ccccc1C`: the TGI was greater than 100 µM.

Turning to `Clc1ccc(C(c2ccc(Cl)cc2)c2ccccn2)cc1`, the TGI worked out at 55.6 µM.

For `C[Si](C)(C)C1(Sc2ccccc2)SCCCS1`, the TGI was greater than 100 µM.

As to `O=c1cc(-c2ccccc2)oc2cc(OCCCOc3ccc4c(=O)cc(-c5ccccc5)oc4c3)ccc12`, the TGI is greater than 100 µM.

The next experiment deals with ACHN renal. As to the kind of experiment: NCI-60 cell line screen, 48 h.
`CCOC(=O)NC(=O)c1cn(CCCO)c(=O)[nH]c1=O` displayed a TGI greater than 100 µM.

As for `COc1ccc(S(=O)(=O)NNS(C)(=O)=O)cc1`, the TGI was greater than 100 µM.

Consider `COc1cc(/C=C2\CN(S(=O)(=O)c3ccccc3)C/C(=C\c3cc(CN4CCCC4)c(O)c(OC)c3)C2=O)cc(CN2CCCC2)c1O`, for which the GI50 was 1.99 µM and the TGI was 4.94 µM.

`CC(=O)OC1COC(n2ccc3cc(Br)c([N+](=O)[O-])cc32)C(OC(C)=O)C1OC(C)=O` (stereo not given): the TGI is greater than 100 µM.

Consider `Cn1cnc([N+](=O)[O-])c1Sc1nc2ccccc2[nH]1`, for which the TGI is 59.9 µM.

Take `CCCCCCCCC/C=C1\CCC(CN2CCOCC2)C1=O` (stereo not given): the TGI was 16.5 µM.

Molecule `CCCCCCN(CCCCCC)C(=O)Cc1c2n(c3ccccc13)Cc1ccccc1-2` registered a TGI greater than 100 µM.

For `C=C1C(=O)O[C@H]2[C@H]1CC/C(COC(=O)c1c[nH]c3ccccc13)=C\CC[C@@]1(C)O[C@@H]21`, the GI50 is 0.215 µM and the TGI was determined as 0.592 µM.

`C/C(=N\NC(=S)NC(CCC(=O)O)C(=O)O)c1ccccn1` (stereo not given) registered a TGI greater than 100 µM.

On to `Brc1ccccc1C1SCc2nc3ccccc3n21` (stereo not given), for which the TGI is 81 µM.

`O=C(/C=C\c1ccc(Cl)c(Cl)c1)c1ccc(Cl)cc1Cl` displayed a TGI of 31.6 µM.

Turning to `ClCc1cccc(Cn2cnc3ncnc(Cl)c32)c1`, the GI50 was 1.88 µM and the TGI was 3.53 µM.

For `CCOC(=O)C(=C=C=C(c1ccccc1)c1ccccc1)C(=O)OCC`, the TGI was determined as 36.7 µM.

In turn, `c1ccc(COc2cccc3ccc[n+](Cc4ccccc4)c23)cc1` registered a TGI of 52.7 µM.

Regarding `CN(C)c1ccc(/C=C(\NC(=O)c2ccccc2)c2nc3ncncc3[nH]2)cc1`, the TGI was greater than 100 µM.

`CC1=CC(O)(c2ccc(-c3ccccc3Cl)cc2)OC1=O` (stereo not given) returned a TGI greater than 100 µM.

As to `CCOC(=O)CC(=O)ON(C)C(C)=O`, the TGI was greater than 100 µM.

Molecule `CCc1cc(Cc2cc(CC)c(NC(=O)C(=O)Cc3ccccn3)c(CC)c2Cl)c(Cl)c(CC)c1NC(=O)C(=O)Cc1ccccn1` returned a TGI greater than 100 µM.

As to `CC(C)OP(=O)(OC(C)C)C(=NCCN=C(NNc1ccc([N+](=O)[O-])cc1)P(=O)(OC(C)C)OC(C)C)NNc1ccc([N+](=O)[O-])cc1`, the TGI was 66.5 µM.

For the molecule `COC(OC)C(C)CC(=O)N(C)C` (stereo not given), the TGI was greater than 100 µM.

As for `CC(C)=Cc1cc(C(=O)Nc2ccc(Cl)c(Cl)c2)nc(N)n1`, the TGI was greater than 100 µM.

The molecule `C#CC1(O)CCC2C3CCc4cc(Oc5nc(F)nc(-c6c7ccccc7c7sc8ccccc8n67)n5)ccc4C3CC[C@@]21C` (stereo not given in full) yielded a TGI greater than 100 µM.

For the molecule `CC(=O)/C(=C\c1cccc([N+](=O)[O-])c1)C(=O)Nc1ccccc1C`, the TGI is greater than 100 µM.

As to `Clc1ccc(C(c2ccc(Cl)cc2)c2ccccn2)cc1`, the TGI is 45.9 µM.

`C[Si](C)(C)C1(Sc2ccccc2)SCCCS1` displayed a TGI greater than 100 µM.

Take `O=c1cc(-c2ccccc2)oc2cc(OCCCOc3ccc4c(=O)cc(-c5ccccc5)oc4c3)ccc12`: the TGI is greater than 100 µM.

The next experiment relates to COLO 205 colon. As to the kind of experiment: NCI-60 cell line screen, 48 h.
In turn, `CCOC(=O)NC(=O)c1cn(CCCO)c(=O)[nH]c1=O` showed a TGI greater than 100 µM.

The molecule `CCN1c2ccccc2C(C(SC)S(=O)(=O)c2ccc(C)cc2)c2c1[nH]c(=O)n(C)c2=O` (stereo not given) displayed a TGI greater than 100 µM.

`COc1ccc(S(=O)(=O)NNS(C)(=O)=O)cc1` returned a TGI greater than 100 µM.

For `CC(=O)OC1COC(n2ccc3cc(Br)c([N+](=O)[O-])cc32)C(OC(C)=O)C1OC(C)=O` (stereo not given), the TGI is 50 µM.

Turning to `Cn1cnc([N+](=O)[O-])c1Sc1nc2ccccc2[nH]1`, the TGI came out at 23.1 µM.

Consider `CCCCCCCCC/C=C1\CCC(CN2CCOCC2)C1=O` (stereo not given), for which the TGI was determined as 11.2 µM.

As for `CCCCCCN(CCCCCC)C(=O)Cc1c2n(c3ccccc13)Cc1ccccc1-2`, the TGI was greater than 100 µM.

On to `C=C1C(=O)O[C@H]2[C@H]1CC/C(COC(=O)c1c[nH]c3ccccc13)=C\CC[C@@]1(C)O[C@@H]21`, for which the GI50 is 0.244 µM and the TGI came to 0.663 µM.

`C/C(=N\NC(=S)NC(CCC(=O)O)C(=O)O)c1ccccn1` (stereo not given) returned a TGI greater than 100 µM.

Turning to `Brc1ccccc1C1SCc2nc3ccccc3n21` (stereo not given), the TGI turned out to be 32.1 µM.

Take `ClCc1cccc(Cn2cnc3ncnc(Cl)c32)c1`: the GI50 was 2.61 µM and the TGI is greater than 100 µM.

Molecule `CCOC(=O)C(=C=C=C(c1ccccc1)c1ccccc1)C(=O)OCC` returned a TGI of 32.5 µM.

The molecule `Cn1c2ccccc2c2cc(-c3ccccc3)c3c(c21)C(=O)c1ccccc1C3=O` yielded a TGI of 94.3 µM.

The molecule `c1ccc(COc2cccc3ccc[n+](Cc4ccccc4)c23)cc1` returned a TGI of 23.9 µM.

Molecule `CN(C)c1ccc(/C=C(\NC(=O)c2ccccc2)c2nc3ncncc3[nH]2)cc1` came in with a TGI greater than 100 µM.

`CC1=CC(O)(c2ccc(-c3ccccc3Cl)cc2)OC1=O` (stereo not given) returned a TGI greater than 100 µM.

In turn, `CCOC(=O)CC(=O)ON(C)C(C)=O` had a TGI greater than 100 µM.

Consider `CCc1cc(Cc2cc(CC)c(NC(=O)C(=O)Cc3ccccn3)c(CC)c2Cl)c(Cl)c(CC)c1NC(=O)C(=O)Cc1ccccn1`, for which the TGI was greater than 100 µM.
